These results are taken from a melting point compilation (Tetko et al.; mined from patent text by program, amines drawn as free bases though some values may be those of a salt).

What is called melting point is the temperature of the solid-liquid transition.

Consider `Clc1ccc(-c2cc(C3CCN(CCc4ccccc4)CC3)no2)cc1`, for which the melting point lay within 118 to 120 °C.

Take `O=C(O)Cn1cc(Cc2nc3c(F)c(F)cc(F)c3s2)c2cc(OCc3ccccc3)ccc21`: the melting point is 165 to 168 °C.

Consider `Cc1cc(-c2cnn3c(C(F)(F)F)cc(-c4cccc(C(F)(F)F)c4)nc23)cc(C)n1`, for which the melting point is 236 °C.

The compound `CN1C(=O)CCc2c1ccc(Sc1cccc(C3(C)CC(O)CCO3)c1)c2F` (centres undefined) registered a melting point of 141 to 142 °C.

`S=C1CSc2cccc(Cl)c2N1` gave a melting point of 138 to 140 °C.

With `O=C(O)CCc1oc(N2CCCCC2)nc1-c1ccc(Cl)cc1`, the melting point is 185 to 186 °C.

With `Cc1c(C)c(N2CCN(c3ncccn3)CC2)c(C)c2c1OC(C)(C)C2`, the melting point was in the range of 145 to 147 °C.

For the compound `COCCc1nc2c(N)nc3cc(Br)ccc3c2n1CCCN1CCCC1=O`, the melting point lay in the range of 228 to 231 °C.

The compound `Nc1nc(N)nc(OCc2ccccc2)n1` gave a melting point of 184 to 185 °C.

`CSc1nnc(-c2ccccc2)n1C` came in with a melting point of 134 to 135 °C.

In turn, `COc1cccc(-c2cn3cc(-c4cccc(CO)c4F)ccc3n2)c1` came in with a melting point of 143 to 144 °C.

`Nc1sc2c(c1C(=O)c1cc3ccccc3o1)CCC2`: the melting point was 126 to 129 °C.

With `COC(=O)CP(=O)(O)C(CCc1ccccc1)NC(=O)OCc1ccccc1` (centres undefined), the melting point was 143 to 147 °C.

Take `C[C@H]1C[C@@](O)(c2cccc(Sc3cc4c(cc3F)N(C)C(=O)CC4)c2)CCO1`: the melting point was in the range of 90 to 92 °C.

As for `N#CCN1C2CCC1CC(OC(c1ccccc1)c1ccccc1)C2` (centres undefined), the melting point was 94 to 97 °C.

The compound `CCCCc1nn(-c2cc(NC(=O)CC)ccc2Cl)c(=O)n1Cc1ccc(-c2ccccc2S(N)(=O)=O)cc1F` displayed a melting point of 135 to 137 °C.

As to `O=C1c2cc3ccc4c(c3c(-c3ccc5c(c3)OCO5)c2C(=O)N1CCCO)OCO4`, the melting point lay within 150 to 152 °C.

The compound `Oc1ccc(-c2nc3cc(O)c(Cl)cc3o2)cc1F` showed a melting point of 197 to 199 °C.

Turning to `CC(C)(C)OC(=O)N1CCC(C(=O)Nc2ccccc2Oc2ccc(Cl)cc2Cl)CC1`, the melting point lay within 120 to 121 °C.

In turn, `S=C(Nc1ccc(Cl)c(Cl)c1)NC1CCCCC1` returned a melting point of 159 to 162 °C.

For `CCc1nc2c(-c3c(C)cc(C)cc3C)ncnc2n1Cc1ccccc1`, the melting point was 121 to 122 °C.

For the compound `Cc1ccc(C)n1-c1c(C(C)C)cc([N+](=O)[O-])cc1C(C)C`, the melting point fell in the range of 125 to 132 °C.

Turning to `O=C(N1CCC1)N1CC(Oc2cccc(C(F)(F)F)c2)C1`, the melting point lay within 65 to 68 °C.

Take `C=C(c1ccc(OC)cc1)c1cc(C(=C)c2ccc(OC)cc2)cc(C(=C)c2ccc(OC)cc2)c1`: the melting point lay within 116 to 118 °C.

The compound `COC(=O)c1cc([N+](=O)[O-])c(N2CCSC2=N)c([N+](=O)[O-])c1` showed a melting point of 138 °C.

With `COc1ccc(C2=C(c3ccc(C=CC(=O)O)cc3)c3ccc(OC)cc3CC2)cc1`, the melting point is 206 °C.

On to `OC(c1ccccc1)(c1ccccn1)C1CCN(Cc2ccccc2)CC1` (centres undefined), for which the melting point lay within 142 to 143 °C.

The compound `Cc1[nH]cnc1Cn1nnnc1-c1cccc(Cl)c1Cl` gave a melting point of 151 to 153 °C.

`CC(C)(C)OC(=O)[C@@H]1CC[C@H](NC(=O)CNC(=O)c2ccc(OCc3ccccc3)c(C(C)(C)C)c2)[C@H](C(=O)O)C1` yielded a melting point of 126 to 132 °C.

`CC(C)(C(=O)Nc1cccc(Cl)c1)N1COC(CBr)=C(c2ccccc2)C1=O` returned a melting point of 89.8 to 90.8 °C.

For `CCOC(=O)Cc1ccc(-c2nc(COc3cc(C(=O)OC)on3)c(C)o2)cc1`, the melting point was in the range of 124 to 126 °C.

In turn, `CCC1(C)OC(c2ccc(S(C)(=O)=O)cc2)=C(c2ccc(C(C)=O)cc2)C1=O` (centres undefined) returned a melting point of 147 to 148 °C.

As to `Cc1ccc(Oc2ccc(C(F)(F)F)cc2Cl)cc1C(=O)O`, the melting point was determined as 113 °C.

Take `COc1ccc(C(=O)c2cnoc2C)cc1`: the melting point was 78 to 79 °C.
